Broadly, the IC50 is the concentration at which inhibition is half-maximal.

For assay [1], the target named is T1, PPARα (Homo sapiens, UniProt Q07869).
T1 construct: gene PPARA
T1 sequence (Q07869 196-468 limits assumed): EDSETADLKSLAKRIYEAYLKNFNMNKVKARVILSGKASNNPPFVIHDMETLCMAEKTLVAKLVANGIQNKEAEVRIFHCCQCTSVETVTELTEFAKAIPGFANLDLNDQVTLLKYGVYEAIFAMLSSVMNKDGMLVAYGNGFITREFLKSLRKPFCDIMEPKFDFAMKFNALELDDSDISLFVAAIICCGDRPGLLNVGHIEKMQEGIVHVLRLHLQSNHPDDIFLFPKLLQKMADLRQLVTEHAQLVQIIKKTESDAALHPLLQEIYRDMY
Description: TR-FRET competitive binding assay; also ultrafiltration LC-MS and cell transactivation. For orientation: In TR-FRET formats the signal depends on donor and acceptor labels being close together.

The next assay addresses T2, PPARγ (Homo sapiens, UniProt P37231).
T2 construct: gene PPARG
T2 sequence (P37231 232-505 limits assumed): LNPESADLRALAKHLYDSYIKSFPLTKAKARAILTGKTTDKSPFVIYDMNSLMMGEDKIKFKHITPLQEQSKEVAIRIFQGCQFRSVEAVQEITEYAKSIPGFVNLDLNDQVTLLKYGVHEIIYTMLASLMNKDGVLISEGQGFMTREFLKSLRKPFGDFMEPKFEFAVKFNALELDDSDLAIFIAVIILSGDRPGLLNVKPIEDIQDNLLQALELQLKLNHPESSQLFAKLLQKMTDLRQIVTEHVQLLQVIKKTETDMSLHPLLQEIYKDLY
Description: TR-FRET competitive binding assay.

In assay [2] the target is T1, PPARα. Nature of the assay: TR-FRET competitive binding assay.

`COc1ccc(-c2cc(=O)c3c(O)c(OC)c(O)cc3o2)cc1OC` [eupatilin] came in with an IC50 on PPARα [1] of 1180 nM.

For the compound `O=C(Nc1ccccc1)c1cc([N+](=O)[O-])ccc1Cl` [GW9662], the IC50 on PPARγ was 24.3 nM.

For `CCC(=O)NC[C@H](Cc1ccc(OCCc2nc(-c3ccccc3)oc2C)cc1)N/C(C)=C\C(=O)c1ccc(C(F)(F)F)cc1` [GW6471], the IC50 on PPARα [2] was 227 nM.

The values are drawn from PMC6331909, “Identification of Eupatilin from Artemisia argyi as a Selective PPARα Agonist Using Affinity Selection Ultrafiltration LC-MS” (Molecules, 2015).
